{"source": "paper PMC6155683", "about": "“Pharmacokinetics Studies of 12 Alkaloids in Rat Plasma after Oral Administration of Zuojin and Fan-Zuojin Formulas” (Molecules : A Journal of Synthetic Chemistry and Natural …, 2017)", "key": {"[1]": {"conditions": "cited from earlier work"}, "[2]": {"conditions": "jejunum vs ileum and colon; cited from earlier work"}, "[3]": {"conditions": "cited from earlier work", "remark": "listed apart in the source"}, "[4]": {"assay": "PK study of the 12 alkaloids in rat plasma after oral administration of ZJ and FZJ extract (LC–MS/MS)", "assay_type": "in vivo", "method": "The time schedule included 15 time-points and six rats were sampled at each time-point. All the rats were orally administered with ZJ extract (suspended in water) at a dose of 3.38 g/kg body weight (dosages of the 12 alkaloids were shown in Table S4), equivalent to crude drug dose of 12 g/kg body weight. Blood samples were collected from the suborbital vein of the rats at 10, 20, 30, 60, 90, 120, 180, 240, 300, 330, 360, 480, 720, 1440, 2160 min after administration, and centrifuged immediately at 5000 rpm for 10 min. The plasma samples were stored at −20 °C until analysis.\nSimilarly, the time schedule of other rats included 15 time-points and six rats were orally administered with FZJ extract at a dose of 3.76 g/kg body weight (also equivalent to crude drug dose of 12 g/kg body weight, Table S4). Blood samples were collected and treated as mentioned above in the PK study of ZJ extract.\nPK parameters of the 12 alkaloids including AUC0→t, AUC0→∞, mean retention time (MRT0→t, MRT0→∞), and elimination half-life (t1/2) were calculated with non-compartmental method by DAS 2.0 software (Mathematical Pharmacology Professional Committee of China, Shanghai, China). Maximum plasma drug concentration (Cmax) and time to reach the maximum plasma drug concentration (Tmax) were observed directly from the detected C–T data. The results were expressed as arithmetic mean ± standard deviation (SD)."}, "[5]": {"assay": "Stability of analytes in rat plasma under storage conditions", "assay_type": "physicochemical", "conditions": "n = 6; for Stability RE, 3 freeze-thaw cycles / Stability RE, 30 days at −20 °C: rat plasma; for Stability RE, processed samples' stability: room temperature 24 h", "method": "The stabilities of analytes in plasma were assessed by analyzing the QC samples at three concentration levels under the following storage conditions: after three freeze (−20 °C)-thaw (room temperature) cycles; stored at −20 °C for 30 days, and comparing the results with those of freshly prepared QC samples. Stabilities of the processed samples at room temperature for 24 h were also assessed."}, "P-gp": {"tested_on": "P-gp", "conditions": "cited from earlier work"}, "[6]": {"conditions": "cited from earlier work", "remark": "listed apart in the source"}}, "note": "Where two headings read alike, the source gives them in different places.", "data": [{"smiles": "COc1ccc2cc3[n+](cc2c1OC)CCc1cc2c(cc1-3)OCO2", "note": "[berberine]", "values": [{"measurement": "primary elimination route in vivo", "setting": "[1]", "value": "renal excretion"}, {"measurement": "absorption rate constant (Ka) compared between intestinal sites", "setting": "[2]", "value": "greater than that at ileum and colon"}, {"measurement": "berberine existed as prototype", "setting": "[3]; 0–36 h after intragastric administration", "value": "at least 56%"}, {"measurement": "berberine remained in the GI tract", "setting": "[3]; at 36 h after intragastric administration", "value": 24, "unit": "%"}, {"measurement": "AUC(0-t)", "setting": "[4]; 3.38 g/kg, rat plasma, oral ZJ extract, mean ± SD, n = 6, read-out: AUC0→t", "value": "277 ± 50.1", "unit": "ng·h/mL"}, {"measurement": "AUC(0-inf)", "setting": "[4]; 3.38 g/kg, rat plasma, oral ZJ extract, mean ± SD, n = 6, read-out: AUC0→∞", "value": "300 ± 55.3", "unit": "ng·h/mL"}, {"measurement": "Cmax", "setting": "[4]; 3.38 g/kg, rat plasma, oral ZJ extract, mean ± SD, n = 6, read-out: Cmax", "value": "109 ± 48.3", "unit": "ng/mL"}, {"measurement": "MRT last", "setting": "[4]; 3.38 g/kg, rat plasma, oral ZJ extract, mean ± SD, n = 6, read-out: MRT0→t (converted)", "value": 6.46, "unit": "h"}, {"measurement": "MRT inf", "setting": "[4]; 3.38 g/kg, rat plasma, oral ZJ extract, mean ± SD, n = 6, read-out: MRT0→∞ (converted)", "value": 8.58, "unit": "h"}, {"measurement": "half-life", "setting": "[4]; 3.38 g/kg, rat plasma, oral ZJ extract, mean ± SD, n = 6, read-out: t1/2", "value": "6.3 ± 3.24", "unit": "h"}, {"measurement": "Tmax", "setting": "[4]; 3.38 g/kg, rat plasma, oral ZJ extract, read-out: Tmax (converted)", "value": 1.5, "unit": "h"}, {"measurement": "AUC(0-t)", "setting": "[4]; 3.76 g/kg, rat plasma, oral FZJ extract, mean ± SD, n = 6, read-out: AUC0→t", "value": "48.1 ± 9.6", "unit": "ng·h/mL"}, {"measurement": "AUC(0-inf)", "setting": "[4]; 3.76 g/kg, rat plasma, oral FZJ extract, mean ± SD, n = 6, read-out: AUC0→∞", "value": "50.2 ± 10.7", "unit": "ng·h/mL"}, {"measurement": "Cmax", "setting": "[4]; 3.76 g/kg, rat plasma, oral FZJ extract, mean ± SD, n = 6, read-out: Cmax", "value": "23.7 ± 7.42", "unit": "ng/mL"}, {"measurement": "MRT last", "setting": "[4]; 3.76 g/kg, rat plasma, oral FZJ extract, mean ± SD, n = 6, read-out: MRT0→t (converted)", "value": 4.07, "unit": "h"}, {"measurement": "MRT inf", "setting": "[4]; 3.76 g/kg, rat plasma, oral FZJ extract, mean ± SD, n = 6, read-out: MRT0→∞ (converted)", "value": 4.68, "unit": "h"}, {"measurement": "half-life", "setting": "[4]; 3.76 g/kg, rat plasma, oral FZJ extract, mean ± SD, n = 6, read-out: t1/2", "value": "2.22 ± 0.835", "unit": "h"}, {"measurement": "Tmax", "setting": "[4]; 3.76 g/kg, rat plasma, oral FZJ extract, read-out: Tmax (converted)", "value": 3, "unit": "h"}, {"measurement": "Tsec (time of the secondary peak in C–T curve)", "setting": "[4]; rat plasma, oral FZJ extract", "value": 30, "unit": "min"}, {"measurement": "Csec (drug concentration of the secondary peak in C–T curve)", "setting": "[4]; rat plasma, oral FZJ extract, mean ± SD, n = 6", "value": "11.64 ± 7.28", "unit": "ng/mL"}, {"measurement": "Tsec (time of the secondary peak in C–T curve)", "setting": "[4]; rat plasma, oral ZJ extract", "value": 300, "unit": "min"}, {"measurement": "Csec (drug concentration of the secondary peak in C–T curve)", "setting": "[4]; rat plasma, oral ZJ extract, mean ± SD, n = 6", "value": "44.68 ± 21.28", "unit": "ng/mL"}, {"measurement": "Stability RE, 3 freeze-thaw cycles", "setting": "[5]; high QC concentration", "value": "−14.86", "unit": "%"}, {"measurement": "Stability RE, 30 days at −20 °C", "setting": "[5]; high QC concentration", "value": "−14.65", "unit": "%"}, {"measurement": "Stability RE, 3 freeze-thaw cycles", "setting": "[5]; low QC concentration", "value": 7.87, "unit": "%"}, {"measurement": "Stability RE, 30 days at −20 °C", "setting": "[5]; low QC concentration", "value": "−8.36", "unit": "%"}, {"measurement": "Stability RE, 3 freeze-thaw cycles", "setting": "[5]; medium QC concentration", "value": "−1.36", "unit": "%"}, {"measurement": "Stability RE, 30 days at −20 °C", "setting": "[5]; medium QC concentration", "value": "−13.68", "unit": "%"}, {"measurement": "Stability RE, processed samples' stability", "setting": "[5]; high QC concentration", "value": "−13.71", "unit": "%"}, {"measurement": "Stability RE, processed samples' stability", "setting": "[5]; low QC concentration", "value": 9.52, "unit": "%"}, {"measurement": "Stability RE, processed samples' stability", "setting": "[5]; medium QC concentration", "value": 4.57, "unit": "%"}, {"measurement": "P-gp substrate", "setting": "P-gp; not told", "value": "P-gp substrates"}, {"measurement": "absolute bioavailability", "setting": "[6]", "value": "less than 1%"}]}, {"smiles": "c1c2c(cc3c1OCO3)-c1cc3ccc4c(c3c[n+]1CC2)OCO4", "note": "[coptisine]", "values": [{"measurement": "absorption rate constant (Ka) compared between intestinal sites", "setting": "[2]", "value": "better absorption rate at colon compared with jejunum"}, {"measurement": "Tsec (time of the secondary peak in C–T curve)", "setting": "[4]; rat plasma, oral ZJ extract", "value": 90, "unit": "min"}, {"measurement": "Csec (drug concentration of the secondary peak in C–T curve)", "setting": "[4]; rat, in vivo, po", "value": "4.96 ± 2.29", "unit": "ng/mL"}, {"measurement": "AUC(0-inf)", "setting": "[4]; rat, in vivo, po, 3.38 g/kg", "value": "71.6 ± 10.7", "unit": "ng·h/mL"}, {"measurement": "AUC(0-t)", "setting": "[4]; rat, in vivo, po, 3.38 g/kg", "value": "68.7 ± 10.8", "unit": "ng·h/mL"}, {"measurement": "Cmax", "setting": "[4]; rat, in vivo, po, 3.38 g/kg", "value": "14.1 ± 7.75", "unit": "ng/mL"}, {"measurement": "MRT inf", "setting": "[4]; rat, in vivo, po, 3.38 g/kg", "value": 12.3, "unit": "h"}, {"measurement": "MRT last", "setting": "[4]; rat, in vivo, po, 3.38 g/kg", "value": 10.7, "unit": "h"}, {"measurement": "Tmax", "setting": "[4]; rat, in vivo, po, 3.38 g/kg", "value": 5, "unit": "h"}, {"measurement": "half-life", "setting": "[4]; rat, in vivo, po, 3.38 g/kg", "value": "8.01 ± 1.92", "unit": "h"}, {"measurement": "AUC(0-inf)", "setting": "[4]; rat, in vivo, po, 3.76 g/kg", "value": "11.8 ± 1.25", "unit": "ng·h/mL"}, {"measurement": "AUC(0-t)", "setting": "[4]; rat, in vivo, po, 3.76 g/kg", "value": "11 ± 1.64", "unit": "ng·h/mL"}, {"measurement": "Cmax", "setting": "[4]; rat, in vivo, po, 3.76 g/kg", "value": "4.78 ± 2.31", "unit": "ng/mL"}, {"measurement": "MRT inf", "setting": "[4]; rat, in vivo, po, 3.76 g/kg", "value": 5.2, "unit": "h"}, {"measurement": "MRT last", "setting": "[4]; rat, in vivo, po, 3.76 g/kg", "value": 4.18, "unit": "h"}, {"measurement": "Tmax", "setting": "[4]; rat, in vivo, po, 3.76 g/kg", "value": 3, "unit": "h"}, {"measurement": "half-life", "setting": "[4]; rat, in vivo, po, 3.76 g/kg", "value": "2.93 ± 1.22", "unit": "h"}, {"measurement": "Stability RE, 3 freeze-thaw cycles", "setting": "[5]; high QC concentration", "value": 0.97, "unit": "%"}, {"measurement": "Stability RE, 30 days at −20 °C", "setting": "[5]; high QC concentration", "value": 0.65, "unit": "%"}, {"measurement": "Stability RE, 3 freeze-thaw cycles", "setting": "[5]; low QC concentration", "value": 6.92, "unit": "%"}, {"measurement": "Stability RE, 30 days at −20 °C", "setting": "[5]; low QC concentration", "value": "−11.58", "unit": "%"}, {"measurement": "Stability RE, 3 freeze-thaw cycles", "setting": "[5]; medium QC concentration", "value": 5.77, "unit": "%"}, {"measurement": "Stability RE, 30 days at −20 °C", "setting": "[5]; medium QC concentration", "value": "−8.99", "unit": "%"}, {"measurement": "Stability RE, processed samples' stability", "setting": "[5]; high QC concentration", "value": "−8.19", "unit": "%"}, {"measurement": "Stability RE, processed samples' stability", "setting": "[5]; low QC concentration", "value": "−10.47", "unit": "%"}, {"measurement": "Stability RE, processed samples' stability", "setting": "[5]; medium QC concentration", "value": "−2.14", "unit": "%"}, {"measurement": "P-gp substrate", "setting": "P-gp", "value": "P-gp substrates"}]}]}
